We go through 19 molecules from patent US11530218B2, “Spiro compounds as inhibitors of KRAS” (Incyte Corporation, priority 2020, dated 2022).

Sequence of KRAS G12D (P01116 1-188 isoform P01116-2 G12D): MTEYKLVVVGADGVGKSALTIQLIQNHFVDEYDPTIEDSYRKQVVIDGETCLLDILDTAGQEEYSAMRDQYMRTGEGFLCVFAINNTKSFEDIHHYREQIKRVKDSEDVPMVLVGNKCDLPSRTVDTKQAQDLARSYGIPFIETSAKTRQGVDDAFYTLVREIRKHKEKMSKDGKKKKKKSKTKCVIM

One test addresses KRAS G12D (Homo sapiens, UniProt P01116, G12D). The test is described as follows: KRAS G12D GDP-GTP exchange assay (bodipy-GDP/GppNHp, SOS1). Conditions: bodipy loaded KRAS G12D 2.5 nM, 4 hours incubation after GppNHp-SOS1; read-out: G12D_exchange (KRAS_G12D exchange assay IC50). It counts as biochemical. The protocol:
The inhibitor potency of the exemplified compounds was determined in a fluorescence based guanine nucleotide exchange assay, which measures the exchange of bodipy-GDP (fluorescently labeled GDP) for GppNHp (Non-hydrolyzable GTP analog) to generate the active state of KRAS in the presence of SOS1 (guanine nucleotide exchange factor). Inhibitors were serially diluted in DMSO and a volume of 0.1 μL was transferred to the wells of a black low volume 384-well plate. 5 μL/well volume of bodipy-loaded KRAS G12C diluted to 5 nM in assay buffer (25 mM Hepes pH 7.5, 50 mM NaCl, 10 mM MgCl2 and 0.01% Brij-35) was added to the plate and pre-incubated with inhibitor for 2 hours at ambient temperature. Appropriate controls (enzyme with no inhibitor or with a G12C inhibitor (AMG-510)) were included on the plate. The exchange was initiated by the addition of a 5 μL/well volume containing 1 mM GppNHp and 300 nM SOS1 in assay buffer. The 10 μL/well reaction concentration of the bodipy-loaded KRAS G12C, GppNHp, and SOS1 were 2.5 nM, 500 uM, and 150 nM, respectively. The reaction plates were incubated at ambient temperature for 2 hours, a time estimated for complete GDP-GTP exchange in the absence of inhibitor. For the KRAS G12D and G12V mutants, similar guanine nucleotide exchange assays were used with 2.5 nM as final concentration for the bodipy loaded KRAS proteins and with 4 hours and 3 hours incubation after adding GppNHp-SOS1 mixture for G12D and G12V respectively. A cyclic peptide described to selectively bind G12D mutant (Sakamoto et al., BBRC 484.3 (2017), 605-611) or internal compounds with confirmed binding were used as positive controls in the assay plates. Fluorescence intensities were measured on a PheraStar plate reader instrument (BMG Labtech) with excitation at 485 nm and emission at 520 nm.
Either GraphPad prism or XLfit was used to analyze the data. The IC50 values were derived by fitting the data to a four parameter logistic equation producing a sigmoidal dose-response curve with a variable Hill coefficient. Prism equation: Y=Bottom+(Top−Bottom)/(1+10^((Log IC50−X)*Hill slope)); XLfit equation: Y=(A+((B−A)/(1+((X/C)^D)))) where X is the logarithm of inhibitor concentration and Y is the response.
Take `Cc1cc2c3c(c(N4CC(N(C)C)C4)nc2c(F)c1-c1cc(O)cc2ccccc12)NC(=O)C31CCCNC1` (single isomer, unassigned) [Example 19b, 4′-(3-(dimethylamino)azetidin-1-yl)-6′-fluoro-7′-(3-hydroxynaphthalen-1-yl)-8′-methylspiro[piperidine-3,1′-pyrrolo[2,3-c]quinolin]-2′(3′H)-one]: the IC50 was 1 to 5 µM.

Consider `CN(C)C1CN(c2nc3c(F)c(-c4cc(O)cc5ccc(Cl)cc45)c(Cl)cc3c3c2NC(=O)C32CCCNC2)C1` (single isomer, unassigned) [Example 20b, 8′-chloro-7′-(7-chloro-3-hydroxynaphthalen-1-yl)-4′-(3-(dimethylamino)azetidin-1-yl)-6′-fluorospiro[piperidine-3,1′-pyrrolo[2,3-c]quinolin]-2′(3′H)-one], for which the IC50 fell in the range of 1 to 5 µM.

In the case of `CN(C)C1CN(c2nc3c(F)c(-c4cc(O)cc5ccccc45)c(Cl)cc3c3c2NC(=O)C32CC3CC2CN3)C1` (single isomer, unassigned) [Example 21b, 8′-chloro-4′-(3-(dimethylamino)azetidin-1-yl)-6′-fluoro-7′-(3-hydroxynaphthalen-1-yl)-5-azaspiro[bicyclo[2.2.1]heptane-2,1′-pyrrolo[2,3-c]quinolin]-2′(3′H)-one], the IC50 lay in the range of 1 to 5 µM.

Take `CN(C)C1CN(c2nc3c(F)c(-c4cc(O)cc5ccccc45)c(CCCC#N)cc3c3c2NC(=O)C32CCCNC2)C1` (single isomer, unassigned) [Example 23b, 4-(4′-(3-(dimethylamino)azetidin-1-yl)-6′-fluoro-7′-(3-hydroxynaphthalen-1-yl)-2′-oxo-2′,3′-dihydrospiro[piperidine-3,1′-pyrrolo[2,3-c]quinolin]-8′-yl)butanenitrile]: the half-inhibitory concentration (IC50) lay in the range of 0.1 to 1 µM.

As to `CN(C)C1CN(c2nc3c(F)c(-c4cc(O)cc5ccccc45)c(CC#N)cc3c3c2NC(=O)C32CCCNC2)C1` (single isomer, unassigned) [Example 24a, 2-(4′-(3-(dimethylamino)azetidin-1-yl)-6′-fluoro-7′-(3-hydroxynaphthalen-1-yl)-2′-oxo-2′,3′-dihydrospiro[piperidine-3,1′-pyrrolo[2,3-c]quinolin]-8′-yl)acetonitrile], the IC50 fell in the range of 1 to 5 µM.

For `CN(C)C1CN(c2nc3c(F)c(-c4cc(O)cc5ccccc45)c(CCC#N)cc3c3c2NC(=O)C32CCCNC2)C1` (single isomer, unassigned) [Example 25b, 3-(4′-(3-(dimethylamino)azetidin-1-yl)-6′-fluoro-7′-(3-hydroxynaphthalen-1-yl)-2′-oxo-2′,3′-dihydrospiro[piperidine-3,1′-pyrrolo[2,3-c]quinolin]-8′-yl)propanenitrile], the 50% inhibitory concentration (IC50) lay within 1 to 5 µM.

Take `CN(C)C1CN(c2nc3c(F)c(-c4cc(O)cc5ccccc45)c(Cc4ccccc4Cl)cc3c3c2NC(=O)C32CCCNC2)C1` (single isomer, unassigned) [Example 26b, 8′-(2-chlorobenzyl)-4′-(3-(dimethylamino)azetidin-1-yl)-6′-fluoro-7′-(3-hydroxynaphthalen-1-yl)spiro[piperidine-3,1′-pyrrolo[2,3-c]quinolin]-2′(3′H)-one]: the IC50 fell in the range of 1 to 5 µM.

Turning to `CN(C)C1CN(c2nc3c(F)c(-c4cc(O)cc5ccccc45)c(Cc4ccccc4C#N)cc3c3c2NC(=O)C32CCCNC2)C1` (single isomer, unassigned) [Example 27b, 2-((4′-(3-(dimethylamino)azetidin-1-yl)-6′-fluoro-7′-(3-hydroxynaphthalen-1-yl)-2′-oxo-2′,3′-dihydrospiro[piperidine-3,1′-pyrrolo[2,3-c]quinolin]-8′-yl)methyl)benzonitrile], the IC50 lay in the range of 1 to 5 µM.

With `CN(C)C1CN(c2nc3c(F)c(-c4cc(O)cc5ccccc45)c(CCCC#N)cc3c3c2NCC32CCCNC2)C1` (single isomer, unassigned) [Example 28b, 4-(4′-(3-(dimethylamino)azetidin-1-yl)-6′-fluoro-7′-(3-hydroxynaphthalen-1-yl)-2′,3′-dihydrospiro[piperidine-3,1′-pyrrolo[2,3-c]quinolin]-8′-yl)butanenitrile], the IC50 fell in the range of 1 to 5 µM.

With `CN(C)C1CN(c2nc3c(F)c(-c4cc(O)cc5ccccc45)c(CCCC#N)cc3c3c2NC(=O)C32CCNC2)C1` (single isomer, unassigned) [Example 30b, 4-(4′-(3-(dimethylamino)azetidin-1-yl)-6′-fluoro-7′-(3-hydroxynaphthalen-1-yl)-2′-oxo-2′,3′-dihydrospiro[pyrrolidine-3,1′-pyrrolo[2,3-c]quinolin]-8′-yl)butanenitrile], the IC50 was in the range of 1 to 5 µM.

With `CN(C)C1CN(c2nc3c(F)c(-c4cc(O)cc5ccccc45)c(CCCC#N)cc3c3c2NC(=O)C32CNCCO2)C1` (single isomer, unassigned) [Example 31b, 4-(4′-(3-(dimethylamino)azetidin-1-yl)-6′-fluoro-7′-(3-hydroxynaphthalen-1-yl)-2′-oxo-2′,3′-dihydrospiro[morpholine-2,1′-pyrrolo[2,3-c]quinolin]-8′-yl)butanenitrile], the IC50 fell in the range of 5 to 50 µM.

In the case of `CN1CCC[C@H]1COc1nc2c(F)c(-c3cc(O)cc4ccccc34)c(CCCC#N)cc2c2c1NC(=O)C21CCCNC1` (single isomer, unassigned) [Example 32b], the IC50 lay within 1 to 5 µM.

As to `CN1C(=O)C2(CCCNC2)c2c1c(OC[C@@H]1CCCN1C)nc1c(F)c(-c3cc(O)cc4ccccc34)c(CCCC#N)cc21` (single isomer, unassigned) [Example 33b], the IC50 is 1 to 5 µM.

As to `CN1CCC[C@H]1COc1nc2c(F)c(-c3cc(O)cc4ccccc34)c(CCCC#N)cc2c2c1N(CCO)C(=O)C21CCCNC1` (single isomer, unassigned) [Example 34b], the IC50 fell in the range of 1 to 5 µM.

`CN1CCC[C@H]1COc1nc2c(F)c(-c3cc(O)cc4ccccc34)c(CCCC#N)cc2c2c1N(CC#N)C(=O)C21CCCNC1` (single isomer, unassigned) [Example 36a]: the IC50 was 1 to 5 µM.

`CN1CCC[C@H]1COc1nc2c(F)c(-c3cc(O)cc4ccccc34)c(CCCC#N)cc2c2c1N(CC(N)=O)C(=O)C21CCCNC1` (single isomer, unassigned) [Example 37b]: the IC50 lay within 1 to 5 µM.

With `CN(C)C1CN(c2nc3c(F)c(-c4cc(O)cc5ccccc45)c(Cl)cc3c3c2NC(=O)C32CC(N)C2)C1` (stereo not shown) [Example 22, 3-amino-8′-chloro-4′-(3-(dimethylamino)azetidin-1-yl)-6′-fluoro-7′-(3-hydroxynaphthalen-1-yl)spiro[cyclobutane-1,1′-pyrrolo[2,3-c]quinolin]-2′(3′H)-one], the IC50 lay within 5 to 50 µM.

Consider `CN(C)C1CN(c2nc3c(F)c(-c4cc(O)cc5ccccc45)c(CCC#N)cc3c3c2NC(=O)C32CNC2)C1` [Example 29, 3-(4′-(3-(dimethylamino)azetidin-1-yl)-6′-fluoro-7′-(3-hydroxynaphthalen-1-yl)-2′-oxo-2′,3′-dihydrospiro[azetidine-3,1′-pyrrolo[2,3-c]quinolin]-8′-yl)propanenitrile], for which the IC50 lay within 1 to 5 µM.

The subject of a further test is KRAS G12C (MIA PaCa-2 cells). The experiment in a line: KRAS_G12C cellular pERK HTRF assay. It counts as cell-based, human. Details: G12C_pERK (KRAS_G12C pERK assay IC50): scale not given here. To be noted: cells incubated with compound 4 hours. The protocol:
MIA PaCa-2 (KRAS G12C; ATCC® CRL-1420), A427 (KRAS G12D; ATCC® HTB53), HPAF-II (KRAS G12D; ATCC® CRL-1997) and NCI-H838 (KRAS WT; ATCC® CRL-5844) cells are purchased from ATCC and maintained in RPMI 1640 media supplemented with 10% FBS (Gibco/Life Technologies). The cells are plated at 5000 cells per well (8 uL) into Greiner 384-well low volume, flat-bottom, tissue culture treated white plates and incubated overnight at 37° C., 5% CO2. The next morning, test compound stock solutions are diluted in media at 3x the final concentration, and 4 uL are added to the cells. The plate is mixed by gentle rotation for 30 seconds (250 rpm) at room temperature. The cells are incubated with the KRAS G12C and G12D compounds for 4 hours or 2 hours respectively at 37° C., 5% CO2.
4 uL of 4× lysis buffer with blocking reagent (1:25) (Cisbio) are added to each well and plates are rotated gently (300 rpm) for 30 minutes at room temperature. 4 uL per well of Cisbio anti Phospho-ERK 1/2 d2 is mixed with anti Phospho-ERK 1/2 Cryptate (1:1) are added to each well, mixed by rotation and incubated overnight in the dark at room temperature. Plates are read on the Pherastar plate reader at 665 nm and 620 nm wavelengths. IC50 determination is performed by fitting the curve of inhibitor percent inhibition versus the log of the inhibitor concentration using the GraphPad Prism 7 software.
In general terms: Time-resolved FRET reads energy transfer from a long-lived donor to a nearby acceptor.
As to `C=CC(=O)N1CCC2(CC1)C(=O)N(C)c1c(OC[C@@H]3CCCN3C)nc3c(F)c(-c4cc(O)cc5ccccc45)c(Cl)cc3c12` (single isomer, unassigned) [Example 16a], the “G12C_pERK (KRAS_G12C pERK assay IC50)” value was “††”.

Broadly, the IC50 is the concentration needed to halve the response being measured.
